Where “and” joins values, the source holds several entries; their conditions need not be identical. Equal entries are not always repeated. Entries after “also recorded” stand apart in the source; their conditions may differ. Where two headings read alike, the source gives them in different places.
Assays:
SARS-CoV = settings: cited from earlier work
[1] = biological target: T1, ORF3a channel of SARS-CoV-2 (Severe acute respiratory syndrome coronavirus 2, UniProt P0DTC3); test: cell-based; settings: for IC50: whole-cell currents, current differences at −60 mV, read-out: IC50, patch-clamp
T1 sequence (P0DTC3 1-275): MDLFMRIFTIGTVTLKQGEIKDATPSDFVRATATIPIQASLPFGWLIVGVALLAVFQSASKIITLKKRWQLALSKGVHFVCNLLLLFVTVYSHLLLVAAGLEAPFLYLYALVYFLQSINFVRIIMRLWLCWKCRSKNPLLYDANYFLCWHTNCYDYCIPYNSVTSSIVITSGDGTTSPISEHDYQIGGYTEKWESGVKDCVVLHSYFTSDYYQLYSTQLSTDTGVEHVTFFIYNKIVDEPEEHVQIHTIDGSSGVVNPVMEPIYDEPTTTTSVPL

[2] = biological target: T2, ORF3a viroporin of SARS-CoV-2 (Severe acute respiratory syndrome coronavirus 2, UniProt P0DTC3); settings: for activity against ORF3a (ORF3a-induced cytotoxicity): cell viability assay, result in words
[3] = system: HEK293 cells transfected with ORF3a; format: cell-based
[4] = biological target: T2, ORF3a viroporin of SARS-CoV-2; test: cell-based; settings: IC50, reversing viroporin-induced cell damage
ORF3a of SARS-CoV [5] = settings: cited from earlier work
HCoV-OC43 = settings: cited from earlier work
ORF3a of SARS-CoV [6] = settings: Xenopus oocytes; cited from earlier work
HEK293 cells = test: MTT cell viability assay of control cells transfected with empty vector; format: cell-based; settings: 5 µM and higher (> 1 µM for ECGC), 10–20 µM
[7] = current–voltage recordings, result in words

Row | Compound | activity against ORF3a channel in patch-clamp [1, 7] | activity against ORF3a (ORF3a-induced cytotoxicity) [2] | IC50 [1] | IC50 [4] | also measured
1 | CCCCC[C@H](O)CC(=O)CCc1ccc(O)c(OC)c1 [6-gingerol] | inactive | inactive |  |  | activity in the same expression system (SARS-CoV; Vero E6 cells): only low activity; morphology of ORF3a-transfected cells after treatment [3]: morphology of dying cells
2 | NC12CC3CC(CC(C3)C1)C2 [amantadine, reference compound] |  |  | 4.5 ± 0.2 nM | 43700 ± 11100 nM | Percentage inhibition from MTT data at the highest inhibitor concentration ([2]; Fig. 4D): 78%
3 | O=c1cc(-c2ccc(O)cc2)oc2cc(O)cc(O)c12 [apigenin] |  | inactive |  |  | 
4 | COc1cc(/C=C/C(=O)CC(=O)/C=C/c2ccc(O)c(OC)c2)ccc1O [curcumin] |  |  |  |  | inhibition of viral replication (SARS-CoV; SARS-CoV infected Vero E6 cells): effectively inhibited viral replication; activity against ORF3a channel in patch-clamp [1]: confirmed the inhibitory activity; Percentage inhibition from MTT data at the highest inhibitor concentration [2]: 72%
5 | Cc1cc(O)c2c(c1)C(=O)c1cc(O)cc(O)c1C2=O [emodin] |  |  |  |  | inhibition of ORF3a of SARS-CoV (ORF3a of SARS-CoV [5]): inhibitor; virus release (HCoV-OC43): able to repress virus release
6 | O=c1c(-c2ccc(O)cc2)coc2cc(O)cc(O)c12 [genistein] |  | inactive |  |  | inhibition of ORF3a activity of SARS-CoV (ORF3a of SARS-CoV [6]): do not
7 | O=c1c(O)c(-c2ccc(O)cc2)oc2cc(O)cc(O)c12 [kaempferol] |  | inhibitory activity | 2.4 ± 0.5 nM | 5200 nM and 5230 nM | 
8 | O=C1C[C@@H](c2ccc(O)cc2)Oc2cc(O)cc(O)c21 [naringenin] |  | inactive |  |  | inhibition of ORF3a activity of SARS-CoV (ORF3a of SARS-CoV [6]): do not
9 | COc1ccc(-c2cc(=O)c3c(OC)c(OC)c(OC)c(OC)c3o2)cc1OC [nobiletin] | confirmed the inhibitory activity | inhibitory activity | 1.8 ± 0.3 nM | 3800 ± 900 nM | effect on viability of control cells (cytotoxic or proliferative effects) (HEK293 cells): increased cell proliferation; also recorded: increased cell viability; activity against ORF3a (ORF3a-induced cytotoxicity) ([2]; listed as Nobiletin): potent activity
10 | O=c1c(O)c(-c2ccc(O)c(O)c2)oc2cc(O)cc(O)c12 [quercetin] | confirmed the inhibitory activity | inhibitory activity | 3.9 ± 0.7 nM | 2500 ± 200 nM | effect on viability of control cells (cytotoxic or proliferative effects) (HEK293 cells): increased cell proliferation; effect on viability of control cells (cytotoxic or proliferative effects) (HEK293 cells; listed as Quercetin): increased cell viability
11 | Oc1ccc(/C=C/c2cc(O)cc(O)c2)cc1 [resveratrol] | confirmed the inhibitory activity | inhibitory activity | 1.5 ± 0.1 nM | 6700 nM and 6730 nM | Percentage inhibition from MTT data at the highest inhibitor concentration ([2]; Fig. 4D): 86%
12 | CC(N)C12CC3CC(CC(C3)C1)C2 (stereo not shown) [rimantadine, reference compound] |  |  |  | 4400 ± 1300 nM | potency of rimantadine higher than that of amantadine ([1]; patch clamp experiments): approximately fourfold; potency of rimantadine higher than that of amantadine ([2]; cell viability assays): ~ tenfold
13 | epigallocatechin gallate [EGCG] | confirmed the inhibitory activity | inhibitory activity | 0.7 ± 0.1 nM |  | effect on viability of control cells (cytotoxic or proliferative effects) (HEK293 cells): increased cell proliferation; also recorded: increased cell viability; IC50 ([2]; read-out: IC50, reversing viroporin-induced cell damage): 1600 nM and 1560 nM; morphology of ORF3a-transfected cells after treatment [3]: healthy cells with normal morphology

Reference: PMC10067842 (Scientific Reports, 2023)
